# In patent publication US20260070945A1, “MACROCYCLIC IMMUNOMODULATORS” (Bristol-Myers Squibb Company, priority 2022, published 2026):
# Where a SMILES comes first, the peptide text is derived from it. Bridges are numbered along the chain shown (N, C = ends). [ ]: non-standard residue; d: D form. The star is where a group is joined. ξ: configuration not given here. Phe(3-CF3) = N[C@@H](Cc1cccc(C(F)(F)F)c1)C(=O)O; Phe(4-CF3) = N[C@@H](Cc1ccc(C(F)(F)F)cc1)C(=O)O; Phe(4-COOH) = N[C@@H](Cc1ccc(C(=O)O)cc1)C(=O)O; Bip = N[C@@H](Cc1ccc(-c2ccccc2)cc1)C(=O)O; NH(CH2)14COOH = O=C(O)CCCCCCCCCCCCCCN*; NH(CH2)12COOH = O=C(O)CCCCCCCCCCCCN*; Val(3-OH) = CC(C)(O)[C@H](N)C(=O)O; Cha = N[C@@H](CC1CCCCC1)C(=O)O; Thr(3ξ) = CC(O)[C@H](N)C(=O)O; Carboxymethyl = O=C(O)C*; NMeA = CN[C@@H](C)C(=O)O; Dab = NCC[C@H](N)C(=O)O; AEEA = NCCOCCOCC(=O)O
# Biological target: T1, PD-1/PD-L1 interaction (PE-labeled human PD-L1-Ig binding to Jurkat cell line over-expressing human PD-1) (Homo sapiens, UniProt Q15116)
# T1 construct: expressed in transfected cells; host or cells: Jurkat
# Assay: Jurkat-PD-1 Cell Binding High-Content Screening Assay (CBA)
# Conditions: PE-labeled PD-L1-Ig 20 nM final, Jurkat-hPD-1 cells; read-out: Jurkat HPD1 PDL1 IC50
# In short: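 Read-out: high-content imaging of cell-bound PE fluorescence, with Hoechst 33342 nuclear counterstain after paraformaldehyde fixation. Before labeled ligand (20 nM final, 1 h) was added, compound sat on the cells for 2 h at 37 °C in DMEM/10% FCS.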
# T1 sequence (Q15116 25-288): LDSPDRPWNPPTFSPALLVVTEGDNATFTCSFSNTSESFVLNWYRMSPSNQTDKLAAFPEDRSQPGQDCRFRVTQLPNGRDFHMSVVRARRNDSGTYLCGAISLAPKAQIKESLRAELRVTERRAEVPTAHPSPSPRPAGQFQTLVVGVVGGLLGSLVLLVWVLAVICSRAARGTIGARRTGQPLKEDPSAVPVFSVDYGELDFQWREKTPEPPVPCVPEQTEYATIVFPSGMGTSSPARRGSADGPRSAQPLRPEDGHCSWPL
row,SMILES,IC50
1,CC(C)C[C@H]1NC(=O)[C@H](C)N(C)C(=O)[C@H](Cc2ccc(C(=O)O)cc2)NC(=O)[C@H](Cc2ccc(-c3ccccc3)cc2)NC(=O)[C@H](Cc2ccc(C(=O)O)cc2)NC(=O)[C@H](Cc2cccc(C(F)(F)F)c2)NC(=O)[C@H](CC(=O)O)NC(=O)[C@H](Cc2ccc(C(=O)O)cc2)NC(=O)[C@H](C(C)O)NC(=O)CSC[C@@H](C(=O)N[C@@H](CCN)C(=O)NCCOCCOCC(=O)NCCCCCCCCCCCCC(=O)O)NC(=O)[C@H](CC(=O)O)NC(=O)[C@H](C(C)C)NC(=O)[C@H](CC2CCCCC2)NC(=O)[C@H](CCN)NC1=O (stereo partly drawn) [Example 2612] ({CH2CO}-[Thr(3ξ)][Phe(4-COOH)]D[Phe(3-CF3)][Phe(4-COOH)][Bip][Phe(4-COOH)][NMeA][dL][Dab][Cha]VDC[Dab][AEEA]-{NH(CH2)12COOH}; thioether N-14),62.9 nM
2,CC(C)C[C@H]1NC(=O)[C@H](C)N(C)C(=O)[C@H](Cc2ccc(C(=O)O)cc2)NC(=O)[C@H](Cc2ccc(-c3ccccc3)cc2)NC(=O)[C@H](Cc2ccc(C(=O)O)cc2)NC(=O)[C@H](Cc2cccc(C(F)(F)F)c2)NC(=O)[C@H](CC(=O)O)NC(=O)[C@H](Cc2ccc(C(=O)O)cc2)NC(=O)[C@H](C(C)O)NC(=O)CSC[C@@H](C(=O)N[C@@H](CCN)C(=O)NCCOCCOCC(=O)NCCOCCOCC(=O)NCCCCCCCCCCCCC(=O)O)NC(=O)[C@H](CC(=O)O)NC(=O)[C@H](C(C)C)NC(=O)[C@H](CC2CCCCC2)NC(=O)[C@H](CCN)NC1=O (stereo partly drawn) [Example 2615] ({CH2CO}-[Thr(3ξ)][Phe(4-COOH)]D[Phe(3-CF3)][Phe(4-COOH)][Bip][Phe(4-COOH)][NMeA][dL][Dab][Cha]VDC[Dab][AEEA][AEEA]-{NH(CH2)12COOH}; thioether N-14),64.1 nM
3,CC(C)C[C@H]1NC(=O)[C@H](C)N(C)C(=O)[C@H](Cc2ccc(C(=O)O)cc2)NC(=O)[C@H](Cc2ccc(-c3ccccc3)cc2)NC(=O)[C@H](Cc2ccc(C(=O)O)cc2)NC(=O)[C@H](Cc2cccc(C(F)(F)F)c2)NC(=O)[C@H](CC(=O)O)NC(=O)[C@H](Cc2ccc(C(=O)O)cc2)NC(=O)[C@H](C(C)O)NC(=O)CSC[C@@H](C(=O)N[C@@H](CCN)C(=O)NCCOCCOCC(=O)NCCOCCOCC(=O)NCCCCCCCCCCCCCCC(=O)O)NC(=O)[C@H](CC(=O)O)NC(=O)[C@H](C(C)C)NC(=O)[C@H](CC2CCCCC2)NC(=O)[C@H](CCN)NC1=O (stereo partly drawn) [Example 2616] ({CH2CO}-[Thr(3ξ)][Phe(4-COOH)]D[Phe(3-CF3)][Phe(4-COOH)][Bip][Phe(4-COOH)][NMeA][dL][Dab][Cha]VDC[Dab][AEEA][AEEA]-{NH(CH2)14COOH}; thioether N-14),427 nM

# The next lines start with the values.
row,IC50,SMILES
1,350 nM,CC(=O)NCCCC[C@@H]1NC(=O)[C@H](C(C)(C)O)NC(=O)[C@H](CC2CCCCC2)NC(=O)[C@H](CCN)NC(=O)[C@@H](CC(C)C)NC(=O)[C@H](C)N(C)C(=O)[C@H](CCC(N)=O)NC(=O)[C@H](Cc2ccc(-c3ccccc3)cc2)NC(=O)[C@H](Cc2ccc(C(=O)O)cc2)NC(=O)[C@H](Cc2cccc(C(F)(F)F)c2)NC(=O)[C@H](CC(=O)O)NC(=O)[C@H](Cc2ccc(OCC(=O)O)cc2)NC(=O)[C@H](Cc2ccc(C(F)(F)F)cc2)NC(=O)CSC[C@@H](C(=O)N[C@@H](CCN)C(=O)NCCOCCOCC(=O)NCCOCCOCC(=O)NCCCCCCCCCCCCCCC(=O)O)NC1=O [Example 2610] ({CH2CO}-[Phe(4-CF3)]Y(Carboxymethyl)D[Phe(3-CF3)][Phe(4-COOH)][Bip]Q[NMeA][dL][Dab][Cha][Val(3-OH)]K(Ac)C[Dab][AEEA][AEEA]-{NH(CH2)14COOH}; thioether N-14)
2,60 nM,CC(=O)NCCCC[C@@H]1NC(=O)[C@H](C(C)(C)O)NC(=O)[C@H](CC2CCCCC2)NC(=O)[C@H](CCN)NC(=O)[C@@H](CC(C)C)NC(=O)[C@H](C)N(C)C(=O)[C@H](CCC(N)=O)NC(=O)[C@H](Cc2ccc(-c3ccccc3)cc2)NC(=O)[C@H](Cc2ccc(C(=O)O)cc2)NC(=O)[C@H](Cc2cccc(C(F)(F)F)c2)NC(=O)[C@H](CC(=O)O)NC(=O)[C@H](Cc2ccc(OCC(=O)O)cc2)NC(=O)[C@H](Cc2ccc(C(F)(F)F)cc2)NC(=O)CSC[C@@H](C(=O)N[C@@H](CCN)C(=O)NCCOCCOCC(=O)NCCCCCCCCCCCCC(=O)O)NC1=O [Example 2611] ({CH2CO}-[Phe(4-CF3)]Y(Carboxymethyl)D[Phe(3-CF3)][Phe(4-COOH)][Bip]Q[NMeA][dL][Dab][Cha][Val(3-OH)]K(Ac)C[Dab][AEEA]-{NH(CH2)12COOH}; thioether N-14)
3,383 nM,CC(C)C[C@H]1NC(=O)[C@H](C)N(C)C(=O)[C@H](Cc2ccc(C(=O)O)cc2)NC(=O)[C@H](Cc2ccc(-c3ccccc3)cc2)NC(=O)[C@H](Cc2ccc(C(=O)O)cc2)NC(=O)[C@H](Cc2cccc(C(F)(F)F)c2)NC(=O)[C@H](CC(=O)O)NC(=O)[C@H](Cc2ccc(C(=O)O)cc2)NC(=O)[C@H](C(C)O)NC(=O)CSC[C@@H](C(=O)N[C@@H](CCN)C(=O)NCCOCCOCC(=O)NCCOCCOCC(=O)NCCCCCCCCCCCCCCC(=O)O)NC(=O)[C@H](CCC(=O)O)NC(=O)[C@H](C(C)C)NC(=O)[C@H](CC2CCCCC2)NC(=O)[C@H](CCN)NC1=O (stereo partly drawn) [Example 2613] ({CH2CO}-[Thr(3ξ)][Phe(4-COOH)]D[Phe(3-CF3)][Phe(4-COOH)][Bip][Phe(4-COOH)][NMeA][dL][Dab][Cha]VEC[Dab][AEEA][AEEA]-{NH(CH2)14COOH}; thioether N-14)
4,190 nM,CC(C)C[C@H]1NC(=O)[C@H](C)N(C)C(=O)[C@H](CCC(N)=O)NC(=O)[C@H](Cc2ccc(-c3ccccc3)cc2)NC(=O)[C@H](Cc2ccc(C(=O)O)cc2)NC(=O)[C@H](Cc2cccc(C(F)(F)F)c2)NC(=O)[C@H](CC(=O)O)NC(=O)[C@H](Cc2ccc(OCC(=O)O)cc2)NC(=O)[C@H](Cc2ccc(OCC(=O)O)cc2)NC(=O)CSC[C@@H](C(=O)N[C@@H](CCN)C(=O)NCCOCCOCC(=O)NCCOCCOCC(=O)NCCCCCCCCCCCCCCC(=O)O)NC(=O)[C@H](CO)NC(=O)[C@H](C(C)(C)O)NC(=O)[C@H](CC2CCCCC2)NC(=O)[C@H](CCN)NC1=O [Example 2614] ({CH2CO}-Y(Carboxymethyl)Y(Carboxymethyl)D[Phe(3-CF3)][Phe(4-COOH)][Bip]Q[NMeA][dL][Dab][Cha][Val(3-OH)]SC[Dab][AEEA][AEEA]-{NH(CH2)14COOH}; thioether N-14)
5,20.1 nM,CC(=O)NCCCC[C@@H]1NC(=O)[C@H](C(C)(C)O)NC(=O)[C@H](CC2CCCCC2)NC(=O)[C@H](CCN)NC(=O)[C@@H](CC(C)C)NC(=O)[C@H](C)N(C)C(=O)[C@H](CCC(N)=O)NC(=O)[C@H](Cc2ccc(-c3ccccc3)cc2)NC(=O)[C@H](Cc2ccc(C(=O)O)cc2)NC(=O)[C@H](Cc2cccc(C(F)(F)F)c2)NC(=O)[C@H](CC(=O)O)NC(=O)[C@H](Cc2ccc(OCC(=O)O)cc2)NC(=O)[C@H](Cc2ccc(OCC(=O)O)cc2)NC(=O)CSC[C@@H](C(=O)N[C@@H](CCN)C(=O)NCCOCCOCC(=O)NCCCCCCCCCCCCC(=O)O)NC1=O [Example 2617] ({CH2CO}-Y(Carboxymethyl)Y(Carboxymethyl)D[Phe(3-CF3)][Phe(4-COOH)][Bip]Q[NMeA][dL][Dab][Cha][Val(3-OH)]K(Ac)C[Dab][AEEA]-{NH(CH2)12COOH}; thioether N-14)
